Assays:
Carbonic anhydrase 4 = Carbonic anhydrase 4 (Homo sapiens, UniProt P22748)
Carbonic anhydrase 13 = Carbonic anhydrase 13 (Mus musculus, UniProt Q9D6N1)
[1] = target: Carbonic anhydrase 5B, mitochondrial (Homo sapiens, UniProt Q9Y2D0)
Carbonic anhydrase 14 = Carbonic anhydrase 14 (Homo sapiens, UniProt Q9ULX7)
Carbonic anhydrase 3 = Carbonic anhydrase 3 (Homo sapiens, UniProt P07451)
[2] = target: Carbonic anhydrase 5A, mitochondrial (Homo sapiens, UniProt P35218)
Carbonic anhydrase 5A, mitochondrial, sequence (P35218 whole entry): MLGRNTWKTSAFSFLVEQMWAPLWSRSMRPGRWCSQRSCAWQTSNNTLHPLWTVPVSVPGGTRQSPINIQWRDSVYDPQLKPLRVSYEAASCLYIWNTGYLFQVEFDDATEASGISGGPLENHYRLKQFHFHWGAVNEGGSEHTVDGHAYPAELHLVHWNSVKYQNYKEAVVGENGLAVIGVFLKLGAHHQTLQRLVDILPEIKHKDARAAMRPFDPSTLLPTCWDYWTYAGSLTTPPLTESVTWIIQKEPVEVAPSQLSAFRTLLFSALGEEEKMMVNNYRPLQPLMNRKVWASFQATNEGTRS

Carbonic anhydrase 13, sequence (Q9D6N1 whole entry): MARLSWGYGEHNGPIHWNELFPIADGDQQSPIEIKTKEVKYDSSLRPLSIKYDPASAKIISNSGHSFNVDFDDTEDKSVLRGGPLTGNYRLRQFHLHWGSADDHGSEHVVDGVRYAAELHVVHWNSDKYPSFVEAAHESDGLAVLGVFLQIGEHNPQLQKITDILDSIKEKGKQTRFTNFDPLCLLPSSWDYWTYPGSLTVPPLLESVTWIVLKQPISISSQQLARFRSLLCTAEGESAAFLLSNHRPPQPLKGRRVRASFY
Carbonic anhydrase 4, sequence (P22748 whole entry): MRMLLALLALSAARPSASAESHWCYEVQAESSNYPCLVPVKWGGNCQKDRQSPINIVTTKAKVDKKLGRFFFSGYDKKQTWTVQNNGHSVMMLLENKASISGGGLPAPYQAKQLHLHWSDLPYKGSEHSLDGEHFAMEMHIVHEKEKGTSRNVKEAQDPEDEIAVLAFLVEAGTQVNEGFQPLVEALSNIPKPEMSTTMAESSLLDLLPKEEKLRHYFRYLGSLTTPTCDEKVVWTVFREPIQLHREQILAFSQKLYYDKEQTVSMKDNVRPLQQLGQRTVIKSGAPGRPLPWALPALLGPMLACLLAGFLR
Carbonic anhydrase 5B, mitochondrial, sequence (Q9Y2D0 whole entry): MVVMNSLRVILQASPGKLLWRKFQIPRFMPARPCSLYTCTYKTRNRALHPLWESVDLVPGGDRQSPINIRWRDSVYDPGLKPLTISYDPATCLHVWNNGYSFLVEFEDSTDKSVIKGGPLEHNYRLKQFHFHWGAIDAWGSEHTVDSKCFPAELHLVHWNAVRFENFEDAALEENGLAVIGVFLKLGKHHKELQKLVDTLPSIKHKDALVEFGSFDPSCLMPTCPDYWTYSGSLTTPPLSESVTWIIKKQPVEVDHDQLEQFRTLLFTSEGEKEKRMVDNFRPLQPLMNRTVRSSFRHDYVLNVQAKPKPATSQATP
Carbonic anhydrase 14, sequence (Q9ULX7 whole entry): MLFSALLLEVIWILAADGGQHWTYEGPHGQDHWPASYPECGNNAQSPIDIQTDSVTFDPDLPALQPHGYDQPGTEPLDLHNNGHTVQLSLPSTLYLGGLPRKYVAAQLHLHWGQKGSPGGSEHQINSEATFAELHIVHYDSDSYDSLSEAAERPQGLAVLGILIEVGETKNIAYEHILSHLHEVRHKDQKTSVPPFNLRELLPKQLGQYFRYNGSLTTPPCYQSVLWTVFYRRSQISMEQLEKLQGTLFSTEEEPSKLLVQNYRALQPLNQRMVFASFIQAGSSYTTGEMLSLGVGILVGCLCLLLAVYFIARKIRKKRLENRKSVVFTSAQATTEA
Carbonic anhydrase 3, sequence (P07451 whole entry): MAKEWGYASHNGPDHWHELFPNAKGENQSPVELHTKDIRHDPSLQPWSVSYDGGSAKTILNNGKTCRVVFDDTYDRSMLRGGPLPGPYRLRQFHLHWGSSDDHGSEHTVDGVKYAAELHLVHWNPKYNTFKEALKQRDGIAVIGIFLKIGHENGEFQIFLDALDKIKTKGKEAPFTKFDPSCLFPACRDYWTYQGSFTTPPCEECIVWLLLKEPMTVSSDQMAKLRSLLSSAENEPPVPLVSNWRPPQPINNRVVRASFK

SMILES	Ki (Carbonic anhydrase 4)	Ki (Carbonic anhydrase 13)	Ki [1]	Ki (Carbonic anhydrase 14)	Ki (Carbonic anhydrase 3)	Ki [2]
CCNC1CN(CCCOC)S(=O)(=O)c2sc(S(N)(=O)=O)cc21 (single isomer, unassigned) [BRINZOLAMIDE]	3950 nM	10 nM	–	–	–	–
NS(=O)(=O)c1cc(Cl)c(Cl)c(S(N)(=O)=O)c1 [DICHLORPHENAMIDE]	–	1450 nM	91 nM	1540 nM	630000 nM	81 nM

Reference: ChEMBL document CHEMBL1144732 (Bioorg Med Chem Lett, 2008)
